Measured values reported in patent US12161722B2, “Bifunctional heterocyclic compound having BTK degradation function via ubiquitin proteasome pathway, and use thereof” (KOREA RESEARCH INSTITUTE OF CHEMICAL TECHNOLOGY, priority 2021, dated 2024).

Target: T1, WT BTK protein (Homo sapiens, UniProt Q06187)
T1 construct: measured for intracellular BTK protein levels by Western blotting; endogenous in cells; host or cells: TMD-8 or RAMOS cells
Test: BTK protein degradation assay (Western blotting), WT BTK
Format: cell-based
Conditions: concentration range accounting for 50% degradation of WT BTK protein, TMD-8 or RAMOS cells, 24 hours
Procedure, shortened: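 TMD-8 cells (1×10^6 cells/mL) treated 24 h with compound serial dilutions, then lysed in RIPA. Equal protein loads analysed by Western blot for BTK with GAPDH/β-actin as loading controls; activity binned by concentration giving 50% WT BTK degradation.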

T1 sequence (Q06187 whole entry): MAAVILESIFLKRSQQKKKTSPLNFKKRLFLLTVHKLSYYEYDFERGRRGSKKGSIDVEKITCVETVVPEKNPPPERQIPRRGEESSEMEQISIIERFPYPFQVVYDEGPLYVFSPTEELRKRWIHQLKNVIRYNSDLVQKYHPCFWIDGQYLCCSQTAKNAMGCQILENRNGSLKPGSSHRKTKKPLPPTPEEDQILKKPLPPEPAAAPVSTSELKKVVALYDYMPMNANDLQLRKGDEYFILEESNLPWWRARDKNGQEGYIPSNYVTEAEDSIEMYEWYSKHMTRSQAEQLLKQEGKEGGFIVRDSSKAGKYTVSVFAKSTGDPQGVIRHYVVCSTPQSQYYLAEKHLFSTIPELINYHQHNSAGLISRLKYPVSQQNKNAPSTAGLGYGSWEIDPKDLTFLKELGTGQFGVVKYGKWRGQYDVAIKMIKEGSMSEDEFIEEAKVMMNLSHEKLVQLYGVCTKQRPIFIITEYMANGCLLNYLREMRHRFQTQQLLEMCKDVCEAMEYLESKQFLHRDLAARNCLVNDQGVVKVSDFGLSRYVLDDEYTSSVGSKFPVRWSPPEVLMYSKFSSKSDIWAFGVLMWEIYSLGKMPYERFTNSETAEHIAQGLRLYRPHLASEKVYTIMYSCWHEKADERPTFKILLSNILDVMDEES

SMILES	DC50
Cc1cccc(C)c1Nc1nn(C)c2nc(Nc3ccc4c(c3)CN(CC(O)CN3CCN(c5ccc6c(c5)C(=O)N(C5CCC(=O)NC5=O)C6=O)CC3)CC4)ncc12 (centres unmarked) [Compound 178, 5-(4-(3-(7-((3-((2,6-Dimethylphenyl)amino)-1-methyl-1H-pyrazolo[3,4-d]pyrimidin-6-yl)amino)-3,4-dihydroisoquinolin-2 (1H)-yl)-2-hydroxypropyl)piperazin-1-yl)-2-(2,6-dioxopiperidin-3-yl)isoindoline-1,3-dione]	0.0001 to 0.01 µM
Cc1cccc(C)c1Nc1nn(C)c2nc(Nc3ccc4c(c3)CN(C(=S)C3CCN(C(=O)CNc5ccc6c(c5)C(=O)N(C5CCC(=O)NC5=O)C6=O)CC3)CC4)ncc12 (centres unmarked) [Compound 235, 5-((2-(4-(7-((3-((2,6-dimethylphenyl)amino)-1-methyl-1H-pyrazolo[3,4-d]pyrimidin-6-yl)amino)-1,2,3,4-tetrahydroisoquinoline-2-carbonothioyl)piperidin-1-yl)-2-oxoethyl)amino)-2-(2,6-dioxopiperidin-3-yl)isoindoline-1,3-dione]	0.0001 to 0.01 µM
Cc1cccc(C)c1Nc1nn(C)c2nc(Nc3ccc(C4CCN(C(=O)C5CN(c6ccc7c(c6)C(=O)N(C6CCC(=O)NC6=O)C7=O)C5)CC4)cc3)ncc12 (centres unmarked) [Compound 228, 5-(3-(4-(4-((3-((2,6-dimethylphenyl)amino)-1-methyl-1H-pyrazolo[3,4-d]pyrimidin-6-yl)amino)phenyl)piperidine-1-carbonyl)azetidin-1-yl)-2-(2,6-dioxopiperidin-3-yl)isoindoline-1,3-dione]	0.0001 to 0.01 µM
Cc1cccc(C)c1Nc1nn(C)c2nc(Nc3ccc4c(c3)CN(C(=O)C3CCN(C(=O)CNc5ccc6c(c5)C(=O)N(C5CCC(=O)NC5=O)C6=O)CC3)CC4)ncc12 (centres unmarked) [Compound 45, 5-((2-(4-(7-((3-((2,6-Dimethylphenyl)amino)-1-methyl-1H-pyrazolo[3,4-d]pyrimidin-6-yl)amino)-1,2,3,4-tetrahydroisoquinoline-2-carbonyl)piperidin-1-yl)-2-oxoethyl)amino)-2-(2,6-dioxopiperidin-3-yl)isoindoline-1,3-dione]	0.0001 to 0.01 µM
Cc1ccccc1Nc1nn(C)c2nc(Nc3ccc4c(c3)CN(CC3CCN(c5ccc6c(c5)C(=O)N(C5CCC(=O)NC5=O)C6=O)CC3)CC4)ncc12 (centres unmarked) [Compound 84, 2-(2,6-Dioxopiperidin-3-yl)-5-(4-((7-((1-methyl-3-(o-tolylamino)-1H-pyrazolo[3,4-d]pyrimidin-6-yl)amino)-3,4-dihydroisoquinolin-2 (1H)-yl)methyl)piperidin-1-yl)isoindoline-1,3-dione]	0.0001 to 0.01 µM
Cc1cccc(C)c1Nc1nn(C)c2nc(Nc3ccc4c(c3)CN(C(=O)C3(F)CCN(c5cc6c(cc5F)C(=O)N(C5CCC(=O)NC5=O)C6=O)CC3)CC4)ncc12 (centres unmarked) [Compound 244, 5-(4-(7-((3-((2,6-dimethylphenyl)amino)-1-methyl-1H-pyrazolo[3,4-d]pyrimidin-6-yl)amino)-1,2,3,4-tetrahydroisoquinoline-2-carbonyl)-4-fluoropiperidin-1-yl)-2-(2,6-dioxopiperidin-3-yl)-6-fluoroisoindoline-1,3-dione]	0.0001 to 0.01 µM
Cc1cccc(C)c1Nc1nn(C)c2nc(Nc3ccc4c(c3)CN(C(=O)COc3ccc5c(c3)C(=O)N(C3CCC(=O)NC3=O)C5=O)CC4)ncc12 (centres unmarked) [Compound 194, 5-(2-(7-((3-((2,6-Dimethylphenyl)amino)-1-methyl-1H-pyrazolo[3,4-d]pyrimidin-6-yl)amino)-3,4-dihydroisoquinolin-2 (1H)-yl)-2-oxoethoxy)-2-(2,6-dioxopiperidin-3-yl)isoindoline-1,3-dione]	0.01 to 1 µM
Cc1cccc(C)c1Nc1nn(C)c2nc(Nc3ccc4c(c3)CN(C3CCN(C[C@H]5CCN(c6ccc7c(c6)C(=O)N(C6CCC(=O)NC6=O)C7=O)C5)CC3)CC4)ncc12 (stereo partly drawn) [Compound 142, 5-((R)-3-((4-(7-((3-((2,6-dimethylphenyl)amino)-1-methyl-1H-pyrazolo[3,4-d]pyrimidin-6-yl)amino)-3,4-dihydroisoquinolin-2 (1H)-yl)piperidin-1-yl)methyl)pyrrolidin-1-yl)-2-(2,6-dioxopiperidin-3-yl)isoindoline-1,3-dione]	0.0001 to 0.01 µM
Cc1cccc(C)c1Nc1nn(C)c2nc(Nc3cccc(CNCC4CCN(c5ccc6c(c5)C(=O)N(C5CCC(=O)NC5=O)C6=O)CC4)c3)ncc12 (centres unmarked) [Compound 41, 5-(4-(((3-((3-((2,6-Dimethylphenyl)amino)-1-methyl-TH-pyrazolo[3,4-d]pyrimidin-6-yl)amino)benzyl)amino)methyl)piperidin-1-yl)-2-(2,6-dioxopiperidin-3-yl)isoindoline-1,3-dione]	0.01 to 1 µM
Cc1cccc(C)c1Nc1nn(C)c2nc(Nc3ccc4c(c3)CN(C(=O)C3CCN(c5ccc6c(c5)C(=O)N(C5CCC(=O)NC5=O)C6=O)C3)CC4)ncc12 (centres unmarked) [Compound 66]	0.01 to 1 µM
Cc1cccc(C)c1Nc1nn(C)c2nc(Nc3ccc4c(c3)CN(C(=O)C3CC5(CCN(c6ccc7c(c6)C(=O)N(C6CCC(=O)NC6=O)C7=O)CC5)C3)CC4)ncc12 (centres unmarked) [Compound 124, 5-(2-(7-((3-((2,6-dimethylphenyl)amino)-1-methyl-1H-pyrazolo[3,4-d]pyrimidin-6-yl)amino)-1,2,3,4-tetrahydroisoquinoline-2-carbonyl)-7-azaspiro[3.5]nonan-7-yl)-2-(2,6-dioxopiperidin-3-yl)isoindoline-1,3-dione]	0.0001 to 0.01 µM
COc1ccc(C(=O)N2CCC(CC(=O)N3CCc4ccc(Nc5ncc6c(Nc7c(C)cccc7C)nn(C)c6n5)cc4C3)CC2)cc1N1CCC(=O)NC1=O [Compound 112, 1-(5-(4-(2-(7-((3-((2,6-Dimethylphenyl)amino)-1-methyl-1H-pyrazolo[3,4-d]pyrimidin-6-yl)amino)-3,4-dihydroisoquinolin-2 (1H)-yl)-2-oxoethyl)piperidine-1-carbonyl)-2-methoxyphenyl)dihydropyrimidine-2,4 (1H,3H)-dione]	1 to 10 µM
Cc1cccc(C)c1Nc1nn(C)c2nc(Nc3ccc(N4CCN(CC5CCN(c6ccc7c(c6)C(=O)N(C6CCC(=O)NC6=O)C7=O)CC5)CC4)nn3)ncc12 (centres unmarked) [Compound 268, 5-(4-((4-(6-((3-((2,6-dimethylphenyl)amino)-1-methyl-1H-pyrazolo[3,4-d]pyrimidin-6-yl)amino)pyridazin-3-yl)piperazin-1-yl)methyl)piperidin-1-yl)-2-(2,6-dioxopiperidin-3-yl)isoindoline-1,3-dione]	0.0001 to 0.01 µM

Continued, values first:

DC50	SMILES
0.0001 to 0.01 µM	Cc1cccc(C)c1Nc1nn(C)c2nc(Nc3ccc4c(c3)CN(C(=O)[C@H]3CC[C@H](OC5CCN(c6ccc7c(c6)C(=O)N(C6CCC(=O)NC6=O)C7=O)CC5)CC3)CC4)ncc12 (some centres unmarked) [Compound 128, 5-(4-(((1r,4r)-4-(7-((3-((2,6-dimethylphenyl)amino)-1-methyl-H-pyrazolo[3,4-d]pyrimidin-6-yl)amino)-1,2,3,4-tetrahydroisoquinoline-2-carbonyl)cyclohexyl)oxy)piperidin-1-yl)-2-(2,6-dioxopiperidin-3-yl)isoindoline-1,3-dione]
0.0001 to 0.01 µM	Cc1cccc(C)c1Nc1nn(C)c2nc(Nc3ccc4c(c3)CN(C[C@@H]3[C@H]5CN(c6ccc7c(c6)C(=O)N(C6CCC(=O)NC6=O)C7=O)C[C@@H]35)CC4)ncc12 (stereo partly drawn) [Compound 148, 5-((1R,5S,6S)-6-((7-((3-((2,6-Dimethylphenyl)amino)-1-methyl-1H-pyrazolo[3,4-d]pyrimidin-6-yl)amino)-3,4-dihydroisoquinolin-2 (1H)-yl)methyl)-3-azabicyclo[3.1.0]hexan-3-yl)-2-(2,6-dioxopiperidin-3-yl)isoindoline-1,3-dione]
0.0001 to 0.01 µM	Cc1cccc(C)c1Nc1nn(C)c2nc(Nc3ccc4c(c3)CCN(CC3CCN(C(=O)CNc5ccc6c(c5)C(=O)N(C5CCC(=O)NC5=O)C6=O)CC3)C4)ncc12 (centres unmarked) [Compound 110, 5-((2-(4-((6-((3-((2,6-Dimethylphenyl)amino)-1-methyl-1H-pyrazolo[3,4-d]pyrimidin-6-yl)amino)-3,4-dihydroisoquinolin-2 (1H)-yl)methyl)piperidin-1-yl)-2-oxoethyl)amino)-2-(2,6-dioxopiperidin-3-yl)isoindoline-1,3-dione]
0.0001 to 0.01 µM	Cc1cccc(C)c1Nc1nn(C)c2nc(Nc3ccc4c(c3)CN(CC(=O)Nc3ccc5c(c3)CN(C3CCC(=O)NC3=O)C5=O)CC4)ncc12 (centres unmarked) [Compound 108, 2-(7-((3-((2,6-Dimethylphenyl)amino)-1-methyl-1H-pyrazolo[3,4-d]pyrimidin-6-yl)amino)-3,4-dihydroisoquinolin-2 (1H)-yl)-N-(2-(2,6-dioxopiperidin-3-yl)-1-oxoisoindolin-5-yl)acetamide]
0.0001 to 0.01 µM	Cc1cccc(C)c1Nc1nn(C)c2nc(Nc3ccc4c(c3)CN(CC3CCN(C(=O)C5CCN(c6cc7c(cc6F)C(=O)N(C6CCC(=O)NC6=O)C7=O)CC5)CC3)CC4)ncc12 (centres unmarked) [Compound 210, 5-(4-(4-((7-((3-((2,6-Dimethylphenyl)amino)-1-methyl-1H-pyrazolo[3,4-d]pyrimidin-6-yl)amino)-3,4-dihydroisoquinolin-2 (1H)-yl)methyl)piperidine-1-carbonyl)piperidin-1-yl)-2-(2,6-dioxopiperidin-3-yl)-6-fluoroisoindoline-1,3-dione]
0.0001 to 0.01 µM	Cc1cccc(C)c1Nc1nn(C)c2nc(Nc3ccc(N4CCN(C[C@H]5CCN(c6ccc7c(c6)C(=O)N(C6CCC(=O)NC6=O)C7=O)C5)CC4)cc3)ncc12 (stereo partly drawn) [Compound 179, 5-((R)-3-((4-(4-((3-((2,6-Dimethylphenyl)amino)-1-methyl-1H-pyrazolo[3,4-d]pyrimidin-6-yl)amino)phenyl)piperazin-1-yl)methyl)pyrrolidin-1-yl)-2-(2,6-dioxopiperidin-3-yl)isoindoline-1,3-dione]
0.0001 to 0.01 µM	Cc1cccc(C)c1Nc1nn(C)c2nc(Nc3ccc(C4CCN(CC5CCN(c6cc7c(cc6F)C(=O)N(C6CCC(=O)NC6=O)C7)CC5)CC4)cc3)ncc12 (centres unmarked) [Compound 272, 3-(5-(4-((4-(4-((3-((2,6-dimethylphenyl)amino)-1-methyl-1H-pyrazolo[3,4-d]pyrimidin-6-yl)amino)phenyl)piperidin-1-yl)methyl)piperidin-1-yl)-6-fluoro-1-oxoisoindolin-2-yl)piperidin-2,6-one]
